According to the NIST ThermoML archive (doi:10.1021/je501126j):

Key:
[1] = 101 kPa, Liquid, Vibrating tube method
[2] = wn = mass fraction of the nth substance listed; conditions: 101 kPa, Liquid, Vibrating tube method

CC(O)CN(C)C (stereo not drawn) [1-(dimethylamino)-2-propanol]
[1]
Conditions	mass density [kg/m3]
298.15 K	845.2
303.15 K	840.4
308.15 K	835.6
313.15 K	830.7
318.15 K	825.9
323.15 K	820.9

CC(O)CN(C)C (stereo not drawn) [1-(dimethylamino)-2-propanol] + O
mass density [kg/m3], [2]
Conditions	298.15 K	303.15 K	308.15 K	313.15 K	318.15 K	323.15 K
w1 = 0.1	992.5	990.8	988.9	986.7	984.2	982.1
w1 = 0.2	989.5	987.2	984.6	981.9	979	976
w1 = 0.3	984.6	981.4	978	974.5	970.9	967.2
w1 = 0.4	976.7	972.8	968.7	964.6	960.5	956.3
w1 = 0.5	967.2	962.9	958.5	954.1	949.4	944.8
w1 = 0.55	958.7	954.2	949.7	945	940.4	935.6
w1 = 0.6	948.9	944.2	939.6	934.8	930	925.2
w1 = 0.71	929.1	924.3	919.5	914.7	909.8	904.9
w1 = 0.81	905.6	900.9	896	891.1	886.2	881.2
w1 = 0.91	876.5	871.1	866.9	862	857.1	852.1
w1 = 0.96	860.5	855.7	850.8	846	841	836.1
w1 = 1	845.2	840.4	835.6	830.7	825.9	820.9
